From patent publication US4764528A, “2,4-pentadienoic acid derivatives and platelet aggregation inhibitors containing the same” (Teruo Kabushiki Kaisha, priority 1986, dated 1988)
Like-named read-outs stand apart in the source and are kept apart here.

Experiments:
platelet aggregation = test: Inhibition of platelet aggregation in rabbit platelet-rich plasma (Born's turbimetry); type: cell-based; settings: Oryctolagus cuniculus
Experimental: Using a syringe containing 3.8% sodium citrate solution (1 volume), 9 volumes of blood is drawn from the carotid artery of a rabbit. Said blood is centrifuged to give platelet-rich plasma (PRP: 7×10^5 /μl).
In a cuvette is placed 250 ul of said PRP, followed by incubation in a thermostat at 37° C. for 2 min. Then, 20 μl of physiological saline buffer solution of a 2,4-pentadienoic acid derivative to be tested is added, and the mixture is incubated for 3 min. A platelet-aggregation inducer, an arachidonic acid solution, a collagen solution or an ADP solution is then added, and platelet aggregation is measured by the Born's turbimetry (which is described, for example, in Journal of Physiology, vol. 168, p. 178 (1968)). 50% Inhibitory concentration of the platelet aggregation caused by arachidonic acid (60 μmol), collagen (10 μg/ml) or ADP (5 μmol) is shown in Table 5 in comparison with prostaglandin I2, aspirin or dipyridamol.
50% Inhibitory concentration as indicated in Table 5 means the concentration of a 2,4-pentadienoic acid derivative needed for inhibiting the platelet aggregation by 50% by the introduction of said 2,4-pentadienoic acid derivative, taking the platelet aggregation in the absence of 2,4-pentadienoic acid derivatives of the invention as 100%.

[1] = unstable vinylether group in the molecule; cited from earlier work
[2] = aggregation induced by ADP (5 μmol), rabbit PRP, 37° C., 3 min preincubation, read-out: Antiplatelet activity, 50% Inhibitory concentration, ADP
[3] = aggregation induced by arachidonic acid (60 μmol), rabbit PRP, 37° C., 3 min preincubation, read-out: Antiplatelet activity, 50% Inhibitory concentration, Arachidonic acid
[4] = aggregation induced by collagen (10 μg/ml), rabbit PRP, 37° C., 3 min preincubation, read-out: Antiplatelet activity, 50% Inhibitory concentration, Collagen

Row | Structure (SMILES) | IC50 (platelet aggregation; [2]) | IC50 (platelet aggregation; [3]) | IC50 (platelet aggregation; [4]) | half life in the living body [1] | IC50 (platelet aggregation; read-out: Antiplatelet activity, 50% Inhibitory concentration, ADP) | IC50 (platelet aggregation; read-out: Antiplatelet activity, 50% Inhibitory concentration, Arachidonic acid) | IC50 (platelet aggregation; read-out: Antiplatelet activity, 50% Inhibitory concentration, Collagen)
1 | CCCCC[C@H](O)/C=C/[C@@H]1[C@H]2CC(C/C=C/C=C/C(=O)O)=C[C@H]2C[C@H]1O [Example 6, 3-(5-carboxy-trans, trans-2,4-pentadienyl)-6-exo-(3α-hydroxy-trans-1-octenyl)-7-endo-hydroxybicyclo[3.3.0]oct-2-ene] | 0.7 µM | 0.82 µM | 0.5 µM |  |  |  | 
2 | CCCCC[C@H](O)/C=C/[C@@H]1[C@H]2CC(/C=C/C=C/C(=O)O)=C[C@H]2C[C@H]1O [Example 1, 3-(4-carboxy-trans, trans-1,3-butadienyl)-6-exo-(3α-hydroxy-trans-1-octenyl)-7-endo-hydroxybicyclo[3.3.0]oct-2-ene] | 0.52 µM | 0.47 µM | 0.32 µM |  |  |  | 
3 | OCCN(CCO)c1nc(N2CCCCC2)c2nc(N(CCO)CCO)nc(N3CCCCC3)c2n1 [dipyridamol, reference compound] | 470 µM | ≥ 1000 µM |  |  |  |  | 
4 | O=C(O)/C=C/C=C/CC1=C[C@H]2C[C@@H](O)[C@H](/C=C/[C@@H](O)C3CCCC3)[C@H]2C1 [Example 9] | 1.4 µM | 1.8 µM | 1.1 µM |  |  |  | 
5 | CCCCC[C@H](O)/C=C/[C@@H]1[C@H]2C/C(=C/CCCC(=O)O)O[C@H]2C[C@H]1O [prostaglandin I2, reference compound] | 0.38 µM | 0.25 µM | 0.22 µM | short |  |  | 
6 | O=C(O)/C=C/C=C/C1=C[C@H]2C[C@@H](O)[C@H](/C=C/[C@@H](O)C3CCCC3)[C@H]2C1 [Example 4] | 0.39 µM | 0.29 µM | 0.23 µM |  |  |  | 
7 | CC(=O)Oc1ccccc1C(=O)O [aspirin, reference compound] |  |  |  |  | ≥ 1000 µM | 17 µM | 200 µM
